Assay results taken from patent US20040166137A1, “Hetero-substituted benzimidazole compounds and antiviral uses thereof” (priority 2002, published 2004).

Experiments:
[1] = tested on: rhinoviruses; details: cited from earlier work
[2] = tested on: RSV; test: Antiviral assay (PRA): inhibition of RSV syncytial plaque formation on Hep2 cell monolayers; format: cell-based; details: human respiratory syncytial virus, HEp-2; Table 2; RSV-infected Hep2 cells, 48 hours, syncytia counted; read-out: PRA (IC50)
Procedure: The lower the observed level of fusion, the greater the antiviral activity of the compound was determined to be. Uninfected confluent monolayers (seeded at 2.2×10^4 cells/well) of Hep2 cells were grown in microtiter wells (96-well plates) in EMEM (Eagle Minimum Essential Medium w/o L-glutamine [Bio Whittaker Cat. […] Bio Whittaker Cat. No. 14-[…]), antibiotics (penicillin/streptomycin; Bio Whittaker Cat. […] The plates were incubated for 24 hours and used for antiviral assays and cytotoxicity assays. To prepare Hep2 cells for addition to uninfected cells, cultures of […] infected Hep2 cells were washed with DPBS (Dulbecco's Phosphate Buffered Saline w/o calcium or magnesium; Bio Whittaker Cat. […] Gibco Life Technologies Cat. No. 15040-017). The cells were spun for 10 minutes and resuspended in 3% FBS. Cell counts were performed using a hemacytometer. Persistent cells were added to the uninfected Hep2 cells. The antiviral assay was conducted by first removing all medium from the wells containing uninfected Hep2 cells, adding 100 μl complete EMEM, then adding hetero-substituted benzimidazole compounds (eight 3-fold dilutions with 20 μM concentration as the highest final concentration) in 50 μl complete EMEM. Approximately 50 […] plaque forming units (PFU) of RSV in 50 μl was added per well and the plates were incubated in a CO2 incubator at 37° C. for 48 hours. Each plate contained uninfected control wells and infected untreated control wells for calculation of % inhibition (EC50) for each concentration. After incubation, cells in control wells were checked for fusion centers, medium was removed from the wells followed by addition to each well of either Crystal Violet stain or XTT. With respect to Crystal Violet, approximately 50μl 0.25% Crystal Violet stain in methanol was added to each well. The wells were rinsed immediately, to remove excess stain, and were allowed to dry. The number of syncytia per well were then counted, using a dissecting microscope. For antiviral assays at 48 hours post infection, cells in control wells were checked for syncytial plaques. Medium was removed from the wells followed by addition of approximately 50 Al Crystal Violet stain (0.25% Crystal Violet, 0.25% Giemsa dissolved in 10% formaldehyde, 70% methanol, and 20% H2O). The wells were incubated at room temperature for 5 minutes, rinsed with H2O to remove excess stain, and allowed to dry. The number of syncytia per well were counted using a dissecting microscope. The 50% inhibitory concentration (EC50) for each compound was calculated from the dose response curve. The compounds listed in Tables 1-2 have been screened for inhibitory activity against RSV.

[3] = XTT cytotoxicity assay on uninfected Hep2 cells; format: cell-based; details: human
Procedure: Uninfected confluent monolayers (seeded at 2.2×10^4 cells/well) of Hep2 cells were grown in microtiter wells (96-well plates) in EMEM (Eagle Minimum Essential Medium w/o L-glutamine [Bio Whittaker Cat. No. 12-125F] with 3% fetal bovine serum (FBS; which had been heat inactivated for 30 minutes at 56° C.; Bio Whittaker Cat. No. 14-501F), antibiotics (penicillin/streptomycin; Bio Whittaker Cat. No. 17-602E) added at 1%, and glutamine added at 1% (complete EMEM). The plates were incubated for 24 hours and used for antiviral assays and cytotoxicity assays.
Cytotoxicity assays were conducted by first removing all medium from the well containing uninfected Hep2 cells, adding 100 μl complete EMEM, and then adding hetero-substituted benzimidazole compounds (eight 3-fold dilutions with 100 μM concentration as the highest final concentration). Complete EMEM (50 μl) was added to each well instead of virus and the plates were incubated in a CO2 incubator at 37° C. for 48 hours.
At 48 hours, the cytotoxicity assays were developed by adding to each well 50 μl of XTT (1 mg/ml in PBS) containing 0.01-0.02 mM of the electron coupling agent phenazine methosulfate (PMS). The plates were incubated for 2-4 hours at 37° C. and then read in a 96-well plate reader at 450 nm. Plotting the % average OD of treated wells compared to the cell control vs. compound concentration generated dose response curves. CC50 (50% inhibitory cytotoxic concentration) values for each compound were then calculated from these curves. […]

| Compound | inhibition of the cytopathic effect [1] [%] | IC50 [2] [nM] | CC50 at 48 h [3] [nM] |
| --- | --- | --- | --- |
| COc1ccc2nc[nH]c2c1 [5-methoxybenzimidazole] | 100 |  |  |
| O=S(=O)(c1ccc(F)cc1F)N1CCN(Cc2nc3cccnc3n2Cc2nc3ccccc3[nH]2)CC1 [compound 30, 3-(1H-Benzoimidazol-2-ylmethyl)-2-[4-(2,4-difluoro-benzenesulfonyl)-piperazin-1-ylmethyl]-3H-imidazo[4,5-b]pyridine] |  | 10 | ≥ 100000 |
| O=C(Cc1ccccc1)N1CCN(Cc2nc3cccnc3n2Cc2nc3ccccc3[nH]2)CC1 [compound 17, 1-{4-[3-(1H-Benzoimidazol-2-ylmethyl)-3H-imidazo[4,5-b]pyridin-2-ylmethyl]-piperazin-1-yl}-2-phenyl-ethanone] |  | 20 | ≥ 100000 |
| c1ccc2[nH]c(Cn3c(CN4CCNCC4)nc4cccnc43)nc2c1 [compound 16, 3-(1H-Benzoimidazol-2-ylmethyl)-2-piperazin-1-ylmethyl-3H-imidazo[4,5-b]pyridine] |  | 120 | ≥ 100000 |
